Measurements as given in patent US20200239957A1, “PREDICTION AND TREATMENT OF HEART FAILURE” (The Regents of the University of Colorado, a body corporate, priority 2013, published 2020).
One block for each molecule: values may come before it.

Tests used:
[1] = heart failure patients, continuous intravenous treatment, cited from earlier work
β-ARs = settings: heart failure patients, continuous intravenous treatment; cited from earlier work
rtPDE3A = rtPDE3A (Homo sapiens, UniProt Q14432); test: PDE3 activity assay, cAMP hydrolysis with and without cilostazol; assay type: biochemical; settings: 0.1 μmol/L cilostazol; read-out: inhibition of rtPDE3A, submaximal (printed as IC44)
rtPDE3A, sequence (Q14432 whole entry): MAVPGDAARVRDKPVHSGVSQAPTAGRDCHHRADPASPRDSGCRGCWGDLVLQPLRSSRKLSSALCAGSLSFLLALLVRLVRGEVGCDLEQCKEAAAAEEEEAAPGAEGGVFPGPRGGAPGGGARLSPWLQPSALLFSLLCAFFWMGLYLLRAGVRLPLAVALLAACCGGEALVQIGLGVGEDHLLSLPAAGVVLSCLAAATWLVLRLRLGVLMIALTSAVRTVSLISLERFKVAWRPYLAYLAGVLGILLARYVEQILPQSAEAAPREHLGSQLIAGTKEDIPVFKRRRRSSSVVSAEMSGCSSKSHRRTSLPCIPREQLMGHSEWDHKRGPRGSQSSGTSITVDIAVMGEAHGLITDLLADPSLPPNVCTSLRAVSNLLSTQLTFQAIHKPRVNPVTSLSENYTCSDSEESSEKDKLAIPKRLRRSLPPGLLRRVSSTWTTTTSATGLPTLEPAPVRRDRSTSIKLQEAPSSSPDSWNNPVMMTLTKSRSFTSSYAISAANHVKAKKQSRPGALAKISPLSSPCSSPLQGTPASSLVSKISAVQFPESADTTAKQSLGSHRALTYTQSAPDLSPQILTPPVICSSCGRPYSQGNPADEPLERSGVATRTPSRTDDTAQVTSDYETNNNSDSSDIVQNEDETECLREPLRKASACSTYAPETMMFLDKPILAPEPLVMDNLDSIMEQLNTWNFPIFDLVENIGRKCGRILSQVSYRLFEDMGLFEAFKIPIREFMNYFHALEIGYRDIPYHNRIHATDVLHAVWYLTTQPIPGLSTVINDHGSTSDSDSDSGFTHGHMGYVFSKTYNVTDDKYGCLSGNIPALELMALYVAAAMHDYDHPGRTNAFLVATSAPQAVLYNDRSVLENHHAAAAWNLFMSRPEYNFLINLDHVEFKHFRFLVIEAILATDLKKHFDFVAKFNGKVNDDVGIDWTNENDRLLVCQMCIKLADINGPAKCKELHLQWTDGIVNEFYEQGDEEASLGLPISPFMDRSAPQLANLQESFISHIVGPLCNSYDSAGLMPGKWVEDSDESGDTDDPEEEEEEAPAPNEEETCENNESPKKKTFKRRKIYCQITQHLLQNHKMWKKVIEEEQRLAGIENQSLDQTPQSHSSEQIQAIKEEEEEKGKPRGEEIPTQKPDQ
Procedure: cAMP-hydrolytic activity was quantified according to the method of Kincaid and Manganiello (1988) as described in detail previously (Movesian et al., 1991). Briefly, microsomal fractions were added to a reaction mixture containing 0.3 mol/L NaHEPES, 0.6 mmol/L EGTA, […] MgCl2 (pH 7.5) and 0.1 μmol/L [^3H]cAMP (Perkin Elmer, Boston, Mass.). cAMP hydrolysis occurred for 10 minutes at 30° C., then the reaction was stopped by the addition of 10.1 mmol/L unlabeled cAMP and […] unlabeled 5′AMP in 0.25 mol/L HCl. The reaction mixture was neutralized with NaOH. [^3H]5′AMP was converted to [^3H]adenosine by incubation with Crotalus atrox venom (30 mg/ml) for 30 minutes at 30° C. The reaction mixture was then applied to QAE-Sephadex columns, and [^3H]adenosine was eluted with water. Cyclic AMP hydrolysis in pmol/min/mg was determined by measuring [^3H]adenosine in the eluent. PDE activity was measured in the presence and absence of 0.1 μmol/L cilostazol, a concentration that inhibits rtPDE3A submaximally (IC44); PDE3 activity was calculated by dividing the difference in activity in the presence and absence of cilostazol by the fractional inhibition of PDE3 activity at this concentration.

PDE3A promoter = PDE3A promoter (INS/DEL) luciferase reporter in transfected NRVMs; assay type: cell-based, rat; settings: for luciferase activity of the DEL promoter construct: DEL construct containing the CRE; for luciferase activity of the DEL promoter construct / up-regulation of PDE3A expression, INS construct (luciferase): 1 μmol/L dibutyryl cAMP or 5 μmol/L enoximone for 48 hours
Procedure: Neonatal rat ventricular myocytes (NRVMs) were prepared from the hearts of 2-day-old rat pups by enzymatic digestion as described (Simpson et al., 1982; Waspe et al., 1990; Singh et al., 2000).
Cloning of the PDE3A promoter region was performed using PCR primers that amplified the −1434/+440 region of the human promoter that contains the INS/DEL genotype. The resulting fragment was cloned in the Promega pGL3-basic vector using MluI and BglII sites as previously described (Sucharov et al., 2003). Cloning of the construct that lacks the cAMP response element (CRE) was done by amplifying the −1066/+440 region of the PDE3A promoter downstream from the CRE site.
Firefly luciferase plasmid DNA was transfected using the Lonza system as previously described (Sucharov et al., 2008). […] Luciferase activity was determined as previously described (Sucharov et al., 2003).

Compound: Nc1cc(-c2ccncc2)c[nH]c1=O [amrinone]
cardiac output at 24 hours ([1]; 24 hours): increase | cardiac output by 72 hours ([1]; 72 hours): return to baseline values | β-ARs in lymphocytes of treated patients (β-ARs): Down-regulation and desensitization

inhibition at 0.1 µM (rtPDE3A): 44%
Compound: O=C1CCc2cc(OCCCCc3nnnn3C3CCCCC3)ccc2N1 [cilostazol]

luciferase activity of the DEL promoter construct (PDE3A promoter): increased luciferase activity | cAMP-induced increase in promoter activity, DEL construct with CRE sequence deleted (PDE3A promoter; DEL construct lacking the CRE (-1066/+440), 48 hours): prevented | up-regulation of PDE3A expression, INS construct (luciferase) (PDE3A promoter): no evidence of up-regulation
Compound: CCCC(=O)Nc1ncnc2c1ncn2[C@@H]1O[C@@H]2COP(=O)(O)O[C@H]2[C@H]1OC(=O)CCC [dibutyryl cAMP]

luciferase activity of the DEL promoter construct (PDE3A promoter): increased luciferase activity | up-regulation of PDE3A expression, INS construct (luciferase) (PDE3A promoter): no evidence of up-regulation
Compound: CSc1ccc(C(=O)c2[nH]c(=O)[nH]c2C)cc1 [enoximone]
